Test results as given in paper PMC5773487, “Harnessing insulin- and leptin-induced oxidation of PTP1B for therapeutic development” (Nature Communications, 2018).

Columns and labels:
reduced PTP1B = biological target: T1, reduced PTP1B (Homo sapiens, UniProt P18031); test: phosphatase activity of reduced PTP1B, DiFMUP substrate; type: biochemical
T1 construct: Purified PTP1B (1–321) (100 nM) was mixed with increasing concentrations of H2O2; 6xHis (C); made in house; host or cells: E. coli BL21 (DE3)-RIL
T1 sequence (P18031 1-321): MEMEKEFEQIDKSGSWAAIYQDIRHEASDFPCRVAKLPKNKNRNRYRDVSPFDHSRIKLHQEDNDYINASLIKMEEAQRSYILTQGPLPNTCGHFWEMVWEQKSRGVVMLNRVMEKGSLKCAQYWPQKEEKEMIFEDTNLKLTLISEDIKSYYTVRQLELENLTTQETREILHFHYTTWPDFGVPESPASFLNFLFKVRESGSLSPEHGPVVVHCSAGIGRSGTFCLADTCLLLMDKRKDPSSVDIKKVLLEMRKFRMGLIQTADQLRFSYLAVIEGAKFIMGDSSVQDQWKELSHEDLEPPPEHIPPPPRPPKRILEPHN
Experimental: Fig. 4 Identification and characterization of small molecules that mimic the effect of scFv45. a Reversibly oxidized PTP1B (PTP1B-OX) was generated by incubation with H2O2 in vitro, desalted, then assayed (20 nM) in the presence and absence of individual members of the LOPAC library. In the right panel, each dot represents an activity measurement. […] Data are representative of at least two independent experiments (n = 2). b Increasing concentration of sanguinarine was tested against reduced (circle) and oxidized (square) forms of PTP1B, using DiFMUP as substrate. c Increasing concentration of levamisole was tested against reduced (circle) and oxidized (square) PTP1B, using DiFMUP as substrate. d PTP1B-OX (200 nM) was incubated with sanguinarine (25 µM) for 5 min and the complex was diluted 100-fold and the activity was monitored for 120 min continuously. e PTP1B-OX (200 nM) was incubated with levamisole (40 µM) for 5 min and the complex was diluted 100-fold and the activity was monitored for 120 min continuously. f Increasing concentration of chelerythrine, an analog of sanguinarine, was tested against reduced (circle) and oxidized (square) forms of PTP1B, using DiFMUP as substrate. […] Individual data points represent the mean obtained from three separate experiments (n = 3; b–g)
(§1) Purified PTP1B (1–321) (100 nM) was mixed with increasing concentrations of H2O2 (0.05–100 mM) in phosphatase assay buffer (50 mM HEPES, pH 7.0, 100 mM NaCl, 0.1% BSA) at room temperature for 5 min. From this reaction mixture PTP1B (10 nM) was used to monitor phosphatase activity using DiFMUP as the substrate, with or without 5 mM TCEP. Activity of each sample was compared to that of the untreated PTP1B in the presence of 5 mM TCEP.

PTP1B-OX [1] = biological target: T2, PTP1B-OX (Homo sapiens, UniProt P18031); test: reduction and reactivation of reversibly oxidized PTP1B by TCEP, DiFMUP substrate; type: biochemical; details: complex diluted 100-fold, activity monitored 120 min
T2 construct: Purified PTP1B (1–321) (100 nM) was mixed with increasing concentrations of H2O2; 6xHis (C); made in house; host or cells: E. coli BL21 (DE3)-RIL
T2 sequence (P18031 1-321): T1 sequence (P18031 1-321)

PTP1B-OX [2] = biological target: T2, PTP1B-OX; test: as above; type: biochemical; details: for restoration of PTP1B-OX activity by TCEP in LOPAC primary screen: compound 10 μM; for IC50: wild-type PTP1B-OX, reactivation by TCEP, DiFMUP substrate, read-out: IC50 against PTP1B-OX
Experimental: Therefore, our approach has been to adapt this assay, which we used to screen for conformation-sensor scFvs[17], now to screen for small molecules that act through a similar mechanism. Our primary screening assay tested the ability of small molecule inhibitors to antagonize the reduction and reactivation of the oxidized conformation of PTP1B, similar to that of scFv45 (Fig. 4a).
as §1
To screen the LOPAC library against PTP1B-OX, 0.5 μl of 1 mM compound in 100% DMSO was added to 384-well plates, resulting in a final compound concentration of 10 μM for the primary screen. Recombinant PTP1B (100 nM) was reversibly oxidized and inactivated with H2O2 (4 mM). The phosphatase activity was restored by a quick buffer exchange and addition of reducing agent (TCEP). PTP1B-OX was incubated with LOPAC compounds (10 μM) in the assay buffer (50 mM HEPES pH 7.0, 100 mM NaCl, 0.005% Tween, 2 mM EDTA) and the effect of individual compound on stabilizing the reversibly oxidized conformation was assessed by the phosphatase assay under reducing conditions using DiFMUP as substrate. scFv45 was used as positive control.

PKC = details: cited from earlier work

Compound	inhibition of the reduced form of PTP1B (reduced PTP1B)	reversibility of PTP1B-OX inhibition (PTP1B-OX [1])	restoration of PTP1B-OX activity by TCEP in LOPAC primary screen (PTP1B-OX [2])	IC50 (PTP1B-OX [2])	inhibition of PKC (PKC)
c1ccc([C@H]2CN3CCSC3=N2)cc1 [levamisole]	no effect	reversible	only able to restore enzymatic activity partially	36 µM	
C[n+]1cc2c3c(ccc2c2ccc4cc5c(cc4c21)OCO5)OCO3 [sanguinarine]	no effect	reversible	only able to restore enzymatic activity partially	25 µM	not an inhibitor
